Laboratory results published in PMC10080691, “Enzyme-Responsive Double-Locked Photodynamic Molecular Beacon for Targeted Photodynamic Anticancer Therapy” (Journal of the American Chemical Society, 2023).

Columns and labels:
MMP-2 = molecular target: T1, MMP-2 (Homo sapiens, UniProt P08253); experiment: MMP-2-responsive fluorescence activation and cleavage (LC-MS); assay type: biochemical; details: 1 μM; for on/off ratio (fluorescence intensity at 25 h / initial intensity): MMP-2 only (2 μg mL-1), PBS pH 7.4, 0.1% Tween 80, 37 °C
T1 sequence (P08253 110-660): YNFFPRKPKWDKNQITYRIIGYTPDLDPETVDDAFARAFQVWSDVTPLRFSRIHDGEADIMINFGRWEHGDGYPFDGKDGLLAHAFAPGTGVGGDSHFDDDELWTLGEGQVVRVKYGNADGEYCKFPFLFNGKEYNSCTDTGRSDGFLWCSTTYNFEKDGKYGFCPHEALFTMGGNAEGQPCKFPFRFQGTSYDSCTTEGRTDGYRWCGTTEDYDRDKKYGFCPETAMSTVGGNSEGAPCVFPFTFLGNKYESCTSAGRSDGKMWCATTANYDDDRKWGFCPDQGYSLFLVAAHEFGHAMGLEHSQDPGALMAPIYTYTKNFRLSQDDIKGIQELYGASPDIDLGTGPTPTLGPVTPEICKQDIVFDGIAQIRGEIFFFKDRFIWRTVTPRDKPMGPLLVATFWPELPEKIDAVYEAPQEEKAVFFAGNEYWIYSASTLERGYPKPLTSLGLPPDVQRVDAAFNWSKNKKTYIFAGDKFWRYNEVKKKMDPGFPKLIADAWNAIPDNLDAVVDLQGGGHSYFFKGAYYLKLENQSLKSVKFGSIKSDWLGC
Description: To examine the response of PMB 1 toward MMP-2 and cathepsin B, its absorption and fluorescence spectra were monitored in the presence of these stimuli at 37 °C over a period of 25 h, using the non-cleavable analogue 14 as the negative control. For studying the MMP-2-responsive effect, MMP-2 (2 μg mL^–1) in PBS at pH 7.4 was used to mimic the high serum levels of this enzyme in patients with cancer.[68] The effect of cathepsin B (using a concentration of 1 unit mL^–1) was studied in the working buffer mentioned above at pH 5.0 to mimic the lysosomal environment.[69] […] Similar results were obtained for the study using cathepsin B in the buffer (Figure S8e–h). […] The more flexible ring-opening structure, however, might slightly increase the separation of the two moieties, leading to a lower FRET efficiency,[70] which could explain the small increase in fluorescence intensity. For comparison, the effect of these enzymes was also studied for 14. As expected, both the absorption and fluorescence spectra were not changed toward these two enzymes (Figure S9).
The fluorescence recovery was then determined for 1 under the aforementioned conditions, assuming that the fluorescence intensity of 8 at the same concentration in the same medium was the maximum fluorescence intensity that could be recovered. […] In addition, we also determined the corresponding on/off ratios by dividing the fluorescence intensity at 25 h by the initial fluorescence intensity under each of these conditions. […]
To further confirm that the restoration of fluorescence emission and singlet oxygen generation of PMB 1 was due to the cleavage by the enzymes, LC–MS was used to analyze the reaction mixtures (Figure 4). […] Similarly, for the mixture obtained after treating 1 (1 μM) with cathepsin B (1 unit mL^–1) in the working buffer at pH 5.0 for 6 h, a new signal with virtually the same retention time was detected in the chromatogram (Figure 4a–c). […]
All of the solutions were stirred continuously at 37 °C. The ir electronic absorption and fluorescence spectra were monitored over a period of 25 h. […]

MMP-2 and cathepsin B = experiment: Dual-enzyme (sequential MMP-2 then cathepsin B) activation: fluorescence, singlet oxygen, LC-MS; assay type: biochemical; details: for singlet oxygen generation (DPBF decay at 417 nm) after enzyme treatment: DPBF 30 μM, sequential MMP-2 and cathepsin B, irradiation λ > 610 nm, 300 s
Description: To study the dual-enzyme-activated effect, PMB 1 was first treated with MMP-2 (2 μg mL^–1) in PBS for 6 h, followed by the addition of NaOAc, EDTA, and GSH and adjustment of the pH to 5.0 to create a working environment for cathepsin B. This enzyme (1 unit mL^–1) was then added, and the mixture was stirred for a further 19 h. […] The intensity at 25 h was almost the same as that at 24 h, which could be regarded as full activation, arising from the complete separation of the two components. In contrast, the absorption and fluorescence spectra of 14 remained unchanged upon this treatment (Figure S10).
The fluorescence recovery was then determined for 1 under the aforementioned conditions, assuming that the fluorescence intensity of 8 at the same concentration in the same medium was the maximum fluorescence intensity that could be recovered. The results are depicted in Figure 3c. […] In addition, we also determined the corresponding on/off ratios by dividing the fluorescence intensity at 25 h by the initial fluorescence intensity under each of these conditions. […] For 14, the ratios were below 1.5 under all the conditions, showing that the effect of the two enzymes was negligible for this conjugate.
Apart from the activation in fluorescence emission, the activation of 1 in singlet oxygen generation was also studied. PMB 1 (1 μM) was treated with MMP-2 and/or cathepsin B as described above and then mixed with DPBF (30 μM). The absorption spectra of these mixtures were monitored during light irradiation (λ > 610 nm) over a period of 300 s. […] The decrease in absorbance became more substantial for 1 after the treatment with both enzymes. As expected, the changes were negligible for 14 under all conditions (Figure S12).
To study the dual-enzyme-activated effect, PMB 1 was treated with MMP-2 (for 6 h) and cathepsin B (for 19 h) sequentially as mentioned above. […]
where W and Iabs are the DPBF photobleaching rate and the rate of light absorption, […]
MMP-2 and Cathepsin B-Responsive Spectroscopic Studies
Compound 1 or 14 was dissolved in DMF to form a 1 mM stock solution, which was then diluted to 1 μM with PBS at pH 7.4 or buffer solution (pH 5.0, 25 mM NaOAc, 1 mM EDTA, 500 μM GSH), both in the presence of 0.1% Tween 80 (v/v) . For the MMP-2-responsive studies, the solutions in PBS were treated with MMP-2 (2 μg mL-1). For the cathepsin B-responsive studies, the solutions in buffer solution were treated with cathepsin B (1 unit mL-1). For the dual-enzyme-responsive studies, the solutions in PBS were first treated with MMP-2 (2 μg mL-1) for 6 h, followed by the treatment with cathepsin B (1 unit mL-1) after the addition of NaOAc, EDTA, and GSH and adjustment of the pH, turning into the conditions of the buffer solution.
All of the solutions were stirred continuously at 37 °C. The ir electronic absorption and fluorescence spectra were monitored over a period of 25 h.
MMP-2- and Cathepsin B-Responsive Singlet Oxygen Generation Studies […]
halogen lamp after passing through a water tank for cooling and a color glass filter (Newport) cut-on at λ = 610 nm. The decay of DPBF at λ = 417 nm was monitored with a spectrophotometer during the irradiation period. […]
According to the above procedure, 1 and 14 were treated with MMP-2 and cathepsin B. After a period of 25 h, MeOH was added into the solutions for precipitating the enzymes. After filtration, the filtrate was analyzed by LC-MS using the aforementioned conditions. […]

CCN(CC)c1ccc2nc3ccc(/N=N/c4ccc(N(C)CCCNC(=O)OC[C@@H]5[C@@H]6CCc7nnn(CC(=O)NCCCC[C@@H]8NC(=O)CNC(=O)[C@H](CCCCN)NC(=O)[C@H](CCCNC(=N)N)NC(=O)[C@H](C(C)C)NC(=O)CNC(=O)[C@H](CC(C)C)NC(=O)[C@@H]9CCCN9C(=O)[C@H](CCCCN)NC(=O)[C@@H](N)CSCc9cc(COc%10ccc(C%11=C%12C(C)=C(I)C(/C=C/c%13ccc(OCCOCCOCCOC)cc%13)=[N+]%12[B-](F)(F)n%12c(/C=C/c%13ccc(OCCOCCOCCOC)cc%13)c(I)c(C)c%12%11)cc%10)cc(c9)CSC[C@@H](C(N)=O)NC(=O)[C@H](CCCCN)NC(=O)[C@H](CCCCN)NC(=O)CNC(=O)[C@H](CC(C)C)NC(=O)[C@H](Cc9ccccc9)NC(=O)CNC(=O)[C@H](CCCCN)NC(=O)CNC8=O)c7CC[C@@H]65)cc4)cc3[n+](-c3ccccc3)c2c1 [compound 1]
LC-MS signal of intact compound after enzyme treatment (MMP-2; MMP-2 (2 μg mL-1) in PBS, 6 h, new signal at 14.7 min (15)): disappeared
on/off ratio (fluorescence intensity at 25 h / initial intensity) (MMP-2): ca. 2.7
singlet oxygen generation (DPBF decay at 417 nm) after enzyme treatment (MMP-2 and cathepsin B; 1 μM): turned on remarkably
on/off ratio (fluorescence intensity at 25 h / initial intensity) (MMP-2 and cathepsin B; 1 μM, MMP-2 6 h then cathepsin B 19 h, 37 °C): 16
fluorescence recovery (MMP-2 and cathepsin B; 1 μM, MMP-2 (2 μg mL-1) in PBS 6 h, then cathepsin B (1 unit mL-1) pH 5.0 buffer 19 h, 37 °C, relative to 8): 85%
LC-MS signal of intact compound after enzyme treatment (MMP-2 and cathepsin B; MMP-2 6 h then cathepsin B 19 h, fragments 17 and 18 formed): disappearance of the signal of 1

CCN(CC)c1ccc2nc3ccc(/N=N/c4ccc(N(C)CCCNC(=O)OC[C@@H]5[C@@H]6CCc7nnn(CC(=O)NCCCC[C@@H]8NC(=O)CNC(=O)[C@H](CCCCN)NC(=O)CNC(=O)CNC(=O)CNC(=O)CNC(=O)CNC(=O)[C@H](CCCCN)NC(=O)[C@@H](N)CSCc9cc(COc%10ccc(C%11=C%12C(C)=C(I)C(/C=C/c%13ccc(OCCOCCOCCOC)cc%13)=[N+]%12[B-](F)(F)n%12c(/C=C/c%13ccc(OCCOCCOCCOC)cc%13)c(I)c(C)c%12%11)cc%10)cc(c9)CSC[C@@H](C(N)=O)NC(=O)[C@H](CCCCN)NC(=O)[C@H](CCCCN)NC(=O)CNC(=O)CNC(=O)CNC(=O)CNC(=O)[C@H](CCCCN)NC(=O)CNC8=O)c7CC[C@@H]65)cc4)cc3[n+](-c3ccccc3)c2c1 [compound 14]
on/off ratio (fluorescence intensity at 25 h / initial intensity) (MMP-2): below 1.5
singlet oxygen generation (DPBF decay at 417 nm) after enzyme treatment (MMP-2 and cathepsin B; 1 μM): negligible
